The subject of the first data set is human hepatocytes. The data set is described as follows: Metabolic conversion of prodrugs to active forms in human hepatocytes. It is filed as in vitro ADME. Conditions: active metabolites Example 1-A, Example 14-A and penciclovir, respectively. An excerpt: A study was undertaken to evaluate the metabolic conversion of prodrugs, formula (II) or formula (IIa), to compounds of formula (I) or formula (Ia) of the present invention. The produgs, formula (II) or formula (IIa), can be metabolized to the active compound of formula (I) or formula (Ia) and other compounds of the invention in the body if they are served as prodrugs. Hepatocytes are often used to assess the degree of metabolic conversion of prodrugs in the body of animal or human. A study was undertaken to evaluate the metabolic conversion of prodrugs, Example 2-A, Example 3-A, Example 4-A, Example 16-A and Example 17-A, to the corresponding active forms, Example 1-A and Example 14-A, in the presence of human hepatocytes. The formation of active forms, Example 1-A and Example 14-A, were monitored in the study. For comparison, the metabolic conversion of famciclovir to penciclovir was also assessed. Cryopreserved hepatocytes plating medium (Cat. #: PY-HMD-01) was purchased from RILD Research Institute for Liver Diseases (Shanghai) Co. Ltd. Cryopreserved human hepatocyte (Cat. #: X008005, Lot #:VRR) was purchased from In Vitro Technologies (Baltimore, Md.). The stock hepatocyte suspension was prepared from cryopreserved hepatocytes in plating medium at the concentration of 1.8×10^6 cells/mL. […] Reaction suspensions were prepared in 24-well cell culture plate by mixing 200 μL of hepatocytes suspension (Cyno or human) and 200 μL of working solution. The final incubation contained 0.9×10^6 cells/mL and 50 μM compound. The above mixtures were incubated at 37° C. in a humidified 5% CO2 atmosphere, with a 150 rpm shaking. After 180 min of incubation, 200 μL of the incubation mixture was transferred to 1.5 mL tube and quenched with 400 μL stop solution (ice-cold acetonitrile with 0.2 μM Tolbutamide as internal standard). The samples were centrifuged at 12000 rpm for 10 minutes and the resultant supernatants were subjected to LC-MS/MS analysis. The calibration curves were prepared in the following way. To a 200 μL of cell suspension (cell density of 1.8 million cells/mL), 198 μL of hepatocyte plating medium and 2 μL of the appropriate concentration of the compound in DMSO were added. Samples were mixed thoroughly and 200 μL of the mixture was transferred to 400 uL of the stop solution (see above). […] The compounds were quantified on an API5500 […] instrument in the ESI-Positive MRM mode.
Regarding `CCC(OC(C)=O)[C@@H]1C[C@@H](O)[C@H](n2c(=O)sc3cnc(N)nc32)O1` (single isomer, unassigned) [Example 4-A], the “Metabolic conversion of prodrug to active metabolite” value (“Metabolic conversion of prodrug” below) was “metabolized to yield the corresponding active metabolites”.

As for `CCC(O)[C@@H]1C[C@@H](O)[C@H](n2c(=O)sc3cnc(N)nc32)O1` (single isomer, unassigned) [Example 2-A], the “Metabolic conversion of prodrug” value is listed as “metabolized to yield the corresponding active metabolites”.

Regarding `CC(=O)OC(C1CC1)[C@@H]1C[C@@H](O)[C@H](n2c(=O)sc3cnc(N)nc32)O1` (single isomer, unassigned) [Example 16-A], the “Metabolic conversion of prodrug” value is “metabolized to yield the corresponding active metabolites”.

With `CCC(O)[C@@H]1C[C@@H](OC(C)=O)[C@H](n2c(=O)sc3cnc(N)nc32)O1` (single isomer, unassigned) [Example 3-A], the “Metabolic conversion of prodrug” value is reported as “metabolized to yield the corresponding active metabolites”.

As for `Nc1ncc2sc(=O)n([C@@H]3O[C@H](C(O)C4CC4)C[C@H]3O)c2n1` (single isomer, unassigned) [Example 17-A], the “Metabolic conversion of prodrug” value is on record as “metabolized to yield the corresponding active metabolites”.

Take `CC(=O)OCC(CCn1cnc2cnc(N)nc21)COC(C)=O` [Famciclovir, famciclovir, reference compound]: the “Metabolic conversion of prodrug” value is recorded as “metabolized to yield the corresponding active metabolites”.

The subject of the next data set is murine peripheral blood mononuclear cells (PBMC). The data set is described as follows: In vitro cytokine induction in murine PBMC (multiplex assay). To be noted: 2 to 10 μM, 24 hours, supernatant, dose-dependent.
Procedure: 50 μL of cell culture medium was collected and analyzed with a 36plex Procarta multiplex kit (ebioscience EPX360-26092-901, eBioscience), which measured the levels of 15 cytokine analytes, following the manufacturer's instruction.
For `CCC(O)[C@@H]1C[C@@H](O)[C@H](n2c(=O)sc3c(=O)[nH]c(N)nc32)O1` (single isomer, unassigned) [Example 1-A], the “Cytokine induction in murine PBMC” value was “high levels of IFNα, IP10, TNFα, and IL-6 were found induced”.

The record behind these values is patent US10618929B2, “3-substituted 5-amino-6H-thiazolo[4,5-D]pyrimidine-2, 7-dione compounds for the treatment and prophylaxis of virus infection” (Hoffmann-La Roche Inc., priority 2014, dated 2020).
